# Measured values: the supplement of paper PMC10307832
# What was measured:
# Assay in all cases: relative viability (nuclei count vs DMSO), 5 days (fraction); higher = more cells survive
# [1] = tested on: NCI-H1395
# Summary of the method: (§1)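 Lung cancer cell lines were seeded in 1536-well plates and dosed by pin tool the next day, with either a single drug or a fixed anchor-drug dose combined with five library-drug doses (not always all listed) spaced in √10 steps. Five days later, one step fixed the cells and stained their nuclei (final 0.05% Triton X-100, 1% formaldehyde, 1 ug/ml Hoechst), and nuclei were counted on 4× images. Relative viability is the nuclei count in treated wells divided by the count in vehicle wells, and each value is the median of duplicate plates.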
# [2] = tested on: SK-MES-1
# Summary of the method: as §1
# [3] = tested on: NCI-H1734
# Summary of the method: as §1
# [4] = tested on: EKVX
# Summary of the method: as §1
# [5] = tested on: NCI-H1355
# Summary of the method: as §1
# [6] = tested on: NCI-H1437
# Summary of the method: as §1
# [7] = tested on: NCI-H2009
# Summary of the method: as §1
# [8] = tested on: SK-LU-1
# Summary of the method: as §1
# [9] = tested on: NCI-H661
# Summary of the method: as §1
# [10] = tested on: HCC-827
# Summary of the method: as §1
# [11] = tested on: NCI-H1993
# Summary of the method: as §1
# [12] = tested on: LOU-NH91
# Summary of the method: as §1
# [13] = tested on: NCI-H1792
# Summary of the method: as §1
# [14] = tested on: HCC-366
# Summary of the method: as §1
# [15] = tested on: NCI-H647
# Summary of the method: as §1
# [16] = tested on: NCI-H2170
# Summary of the method: as §1
# [17] = tested on: BEN
# Summary of the method: as §1
# [18] = tested on: NCI-H2087
# Summary of the method: as §1
# [19] = tested on: HARA
# Summary of the method: as §1
# [20] = tested on: NCI-H2405
# Summary of the method: as §1
structure (smiles),measurement,setting,value
O=c1cc(N2CCOCC2)oc2c(-c3cccc4c3sc3ccccc34)cccc12 + CS(=O)(=O)N1CCN(Cc2cc3nc(-c4cccc5[nH]ncc45)nc(N4CCOCC4)c3s2)CC1 [Pictilisib] (partner 1 µM),relative viability,[1]; first compound 0.01 µM,0.587
same,relative viability,[1]; first compound 0.03162 µM,0.653
same,relative viability,[1]; first compound 0.1 µM,0.484
same,relative viability,[1]; first compound 0.3162 µM,0.623
same,relative viability,[1]; first compound 1 µM,0.627
same,relative viability,[2]; first compound 0.01 µM,0.327
same,relative viability,[2]; first compound 0.03162 µM,0.314
same,relative viability,[2]; first compound 0.1 µM,0.396
same,relative viability,[2]; first compound 0.3162 µM,0.31
same,relative viability,[2]; first compound 1 µM,0.362
same,relative viability,[3]; first compound 0.01 µM,0.445
same,relative viability,[3]; first compound 0.03162 µM,0.472
same,relative viability,[3]; first compound 0.1 µM,0.452
same,relative viability,[3]; first compound 0.3162 µM,0.504
same,relative viability,[3]; first compound 1 µM,0.446
same,relative viability,[4]; first compound 0.01 µM,0.418
same,relative viability,[4]; first compound 0.03162 µM,0.496
same,relative viability,[4]; first compound 0.1 µM,0.507
same,relative viability,[4]; first compound 0.3162 µM,0.439
same,relative viability,[4]; first compound 1 µM,0.431
same,relative viability,[5]; first compound 0.01 µM,0.486
same,relative viability,[5]; first compound 0.03162 µM,0.502
same,relative viability,[5]; first compound 0.3162 µM,0.429
same,relative viability,[5]; first compound 1 µM,0.419
same,relative viability,[6]; first compound 0.01 µM,0.455
same,relative viability,[6]; first compound 0.03162 µM,0.456
same,relative viability,[6]; first compound 0.1 µM,0.542
same,relative viability,[6]; first compound 0.3162 µM,0.478
same,relative viability,[6]; first compound 1 µM,0.412
same,relative viability,[7]; first compound 0.01 µM,0.802
same,relative viability,[7]; first compound 0.03162 µM,0.864
same,relative viability,[7]; first compound 0.1 µM,0.735
same,relative viability,[7]; first compound 0.3162 µM,0.796
same,relative viability,[7]; first compound 1 µM,0.813
same,relative viability,[8]; first compound 0.01 µM,0.609
same,relative viability,[8]; first compound 0.03162 µM,0.604
same,relative viability,[8]; first compound 0.1 µM,0.527
same,relative viability,[8]; first compound 0.3162 µM,0.481
same,relative viability,[8]; first compound 1 µM,0.587
same,relative viability,[9]; first compound 0.01 µM,0.362
same,relative viability,[9]; first compound 0.03162 µM,0.352
same,relative viability,[9]; first compound 0.1 µM,0.376
same,relative viability,[9]; first compound 0.3162 µM,0.409
same,relative viability,[9]; first compound 1 µM,0.331
same,relative viability,[10]; first compound 0.01 µM,1.04
same,relative viability,[10]; first compound 0.03162 µM,0.809
same,relative viability,[10]; first compound 0.1 µM,1.05
same,relative viability,[10]; first compound 0.3162 µM,1.01
same,relative viability,[10]; first compound 1 µM,0.997
same,relative viability,[11]; first compound 0.01 µM,0.937
same,relative viability,[11]; first compound 0.03162 µM,0.945
same,relative viability,[11]; first compound 0.1 µM,0.812
same,relative viability,[11]; first compound 0.3162 µM,0.759
same,relative viability,[11]; first compound 1 µM,0.799
same,relative viability,[12]; first compound 0.01 µM,0.476
same,relative viability,[12]; first compound 0.03162 µM,0.533
same,relative viability,[12]; first compound 0.1 µM,0.525
same,relative viability,[12]; first compound 0.3162 µM,0.514
same,relative viability,[12]; first compound 1 µM,0.531
same,relative viability,[13]; first compound 0.01 µM,0.286
same,relative viability,[13]; first compound 0.03162 µM,0.264
same,relative viability,[13]; first compound 0.1 µM,0.244
same,relative viability,[13]; first compound 0.3162 µM,0.274
same,relative viability,[13]; first compound 1 µM,0.252
same,relative viability,[14]; first compound 0.01 µM,0.197
same,relative viability,[14]; first compound 0.03162 µM,0.154
same,relative viability,[14]; first compound 0.1 µM,0.1
same,relative viability,[14]; first compound 0.3162 µM,0.154
same,relative viability,[14]; first compound 1 µM,0.137
same,relative viability,[15]; first compound 0.01 µM,0.437
same,relative viability,[15]; first compound 0.3162 µM,0.578
same,relative viability,[15]; first compound 1 µM,0.439
same,relative viability,[16]; first compound 0.01 µM,0.299
same,relative viability,[16]; first compound 0.03162 µM,0.331
same,relative viability,[16]; first compound 0.1 µM,0.369
same,relative viability,[16]; first compound 0.3162 µM,0.375
same,relative viability,[16]; first compound 1 µM,0.344
same,relative viability,[17]; first compound 0.01 µM,0.593
same,relative viability,[17]; first compound 0.03162 µM,0.579
same,relative viability,[17]; first compound 0.1 µM,0.593
same,relative viability,[17]; first compound 0.3162 µM,0.655
same,relative viability,[17]; first compound 1 µM,0.535
same,relative viability,[18]; first compound 0.01 µM,0.745
same,relative viability,[18]; first compound 0.03162 µM,0.861
same,relative viability,[18]; first compound 0.1 µM,0.851
same,relative viability,[18]; first compound 0.3162 µM,0.783
same,relative viability,[18]; first compound 1 µM,1
same,relative viability,[19]; first compound 0.01 µM,0.315
same,relative viability,[19]; first compound 0.03162 µM,0.381
same,relative viability,[19]; first compound 0.1 µM,0.435
same,relative viability,[19]; first compound 0.3162 µM,0.362
same,relative viability,[19]; first compound 1 µM,0.457
same,relative viability,[20]; first compound 0.01 µM,0.397
same,relative viability,[20]; first compound 0.03162 µM,0.513
same,relative viability,[20]; first compound 0.1 µM,0.443
same,relative viability,[20]; first compound 0.3162 µM,0.533
same,relative viability,[20]; first compound 1 µM,0.443
